Measurements: US10314851B2, “Metakaryocidal treatments” (Massachusetts Institute of Technology, priority 2014, dated 2019)
Where two headings read alike, the source gives them in different places.

Tested on: HT-29 cells
From the text: Applicants next sought means to test nominated drugs (also referred to herein as candidate agents) using human cell cultures, particularly cell cultures derived from human tumors in which they discovered metakaryotic cells driving net growth and differentiation of such cultures by symmetric and asymmetric amitotic divisions.
The metakaryotic and pre-metakaryotic cells of cell lines derived from human tumors are capable of unlimited division when plated as single cells on plastic or glass surfaces. However, most cells in such cell lines are eukaryotic cells capable of limited cell growth which growth cannot give rise to immortal colonies or populations of cells. This quality permits the line to be used in quantitative assays of cell killing important for distinguishing among agents and regimens that kill metakaryotic cells in preference to eukaryotic cells and vice versa.
Single cells betray different fates. […] Applicants interpret these colonies and derived immortal populations to be the descendants of single metakaryotic or pre-metakaryotic stem cells.
Colonies of limited size between 1 and 2^11 cells are interpreted to be the products of growth of transition cell tiers three through eleven.
In this reproducible behavior the human tumor cell lines offered a means to test agents for metakaryocidal activity: metakaryocidal agents and regimens would reduce or eliminate the appearance of large colonies that could be propagated by serial trypsinized transfer. […] An example of this kind of assay is illustrated in FIGS. 1, 2 and 3.
In particular drugs evaluated were reported to overcome “multidrug resistance” giving special priority to drugs that suppressed “multidrug resistance” (MDR).
Shown in FIGS. 1-3 are images of quantitative trials of different regimens (initial concentration, duration of exposure) of metformin in clonal assays using HT-29 cells. […] FIG. 1 is a photograph illustrating the experimental design for testing metformin as a metakaryocide in vitro.
FIG. 2 depicts a table of the recorded colony counts on each of the flasks of the first image.
The Y-axis is the number of colonies on each test flask enumerated in FIG. 2 while the X-axis is the product of metformin concentration (micromolar) times the duration of the HT-29 cells to the drug (weeks).

Compound | concentration above which surviving large colonies are not immortal and do not contain metakaryotic stem cells (HT-29, FIG. 1, five weeks) [µM] | concentration x duration of exposure at which elimination of metakaryotic cell-containing immortal colonies is reached (HT-29, FIG. 3) [micromolar-weeks] | concentration x duration of exposure below which killing of mortal colonies is not observed (HT-29, FIG. 3) | survival fraction of the metformin-sensitive population (metakaryotic cells) (HT-29, at ~200 μM weeks) | total large colony numbers reduced to a level less than in untreated control flasks (HT-29, colonies five weeks after seeding, treated from day one for one, two or five weeks, concentration x duration treatments shown with green counts in FIG. 2) | concentration at which surviving large colonies are not immortal and do not contain metakaryotic stem cells (HT-29, five weeks exposure) [µM] | concentration above which surviving large colonies are not immortal and do not contain metakaryotic stem cells (HT-29, one week exposure) [µM] | expected survival of metakaryotic cells (extrapolated from FIG. 3, treatment of ~400 μM weeks) | metakaryocidal effect (survival vs. concentration x duration function) (tests of some sixteen drugs, compared with metformin)
CN(C)C(=N)N=C(N)N [metformin] | > 100 | ~200 | about 2000 micromolar weeks | 10^−2 | about 10% | 800 | > 1600 | 10^−4 | –
COC(=O)[C@H]1[C@H]2C[C@@H]3c4[nH]c5cc(OC)ccc5c4CCN3C[C@H]2C[C@@H](OC(=O)c2cc(OC)c(OC)c(OC)c2)[C@@H]1OC [reserpine] | – | – | – | – | – | – | – | – | no detectable effect as a metakaryocide
